Data taken from US6319702A, “Nucleic acids encoding mutant human carboxypeptidase A enzymes” (Glaxo Wellcome, Inc., priority 1993, dated 2001).
Where two headings read alike, the source gives them in different places.

Assay: Stability and biodistribution of prodrugs in vivo (HPLC of plasma and tissues)
Parameters: species or system mice (CD-1 nude; BALB/C where indicated)
Conditions: 50 mg/kg i.p. or i.v., CD-1 nude mice

concentration of prodrug in cecum (CECUM, 30 min): 2.7 nmol/g | concentration of prodrug in kidney (KIDNEY, 30 min): 9.0 nmol/g | concentration of prodrug in kidney (KIDNEY, 90 min): 1.3 nmol/g | concentration of prodrug in kidney (KIDNEY, 180 min): 0.2 nmol/g | concentration of prodrug in large intestine (LARGE INTESTINE, 30 min): 5.9 nmol/g | concentration of prodrug in large intestine (LARGE INTESTINE, 90 min): 0.7 nmol/g | concentration of prodrug in large intestine (LARGE INTESTINE, 180 min): 1.3 nmol/g | concentration of prodrug in liver (LIVER, 30 min): 42.0 nmol/g | concentration of prodrug in liver (LIVER, 90 min): 9.1 nmol/g | concentration of prodrug in liver (LIVER, 180 min): 0.8 nmol/g | concentration (PLASMA, 30 min, 50 mg/kg, 30 min, read-out: concentration of prodrug in plasma): 22.1 µM | concentration of prodrug in small intestine (SMALL INTESTINE, 30 min): 170.2 nmol/g | concentration of prodrug in small intestine (SMALL INTESTINE, 120 min): 17.6 nmol/g | concentration of prodrug in tumor (TUMOR, 30 min): 2.7 nmol/g | remaining at 0.5 h (mouse, cecum, 50 mg/kg, CECUM, 30 min, read-out: stability: percentage of material observed as intact prodrug, cecum): 96% | remaining at 0.5 h (mouse, kidney, 50 mg/kg, KIDNEY, 30 min, read-out: stability: percentage of material observed as intact prodrug, kidney): 96% | remaining at 1.5 h (mouse, kidney, 50 mg/kg, KIDNEY, 90 min, read-out: stability: percentage of material observed as intact prodrug, kidney): 98% | remaining at 3 h (mouse, kidney, 50 mg/kg, KIDNEY, 180 min, read-out: stability: percentage of material observed as intact prodrug, kidney): 100% | remaining at 0.5 h (mouse, large intestine, 50 mg/kg, LARGE INTESTINE, 30 min, read-out: stability: percentage of material observed as intact prodrug, large intestine): 93% | remaining at 1.5 h (mouse, large intestine, 50 mg/kg, LARGE INTESTINE, 90 min, read-out: stability: percentage of material observed as intact prodrug, large intestine): 60% | remaining at 3 h (mouse, large intestine, 50 mg/kg, LARGE INTESTINE, 180 min, read-out: stability: percentage of material observed as intact prodrug, large intestine): 52% | remaining at 0.5 h (mouse, liver, 50 mg/kg, LIVER, 30 min, read-out: stability: percentage of material observed as intact prodrug, liver (converted)): 96% | remaining at 1.5 h (mouse, liver, 50 mg/kg, LIVER, 90 min, read-out: stability: percentage of material observed as intact prodrug, liver): 100% | remaining at 3 h (mouse, liver, 50 mg/kg, LIVER, 180 min, read-out: stability: percentage of material observed as intact prodrug, liver): 100% | concentration at 0.5 h (mouse, plasma, 50 mg/kg, PLASMA, 30 min, read-out: concentration of prodrug in plasma): 33 µM | remaining at 0.5 h (mouse, plasma, 50 mg/kg, PLASMA, 30 min, read-out: stability: percentage of material observed as intact prodrug, plasma): 100% | concentration at 1.5 h (mouse, plasma, 50 mg/kg, PLASMA, 90 min, read-out: concentration of prodrug in plasma): 5.5 µM | remaining at 1.5 h (mouse, plasma, 50 mg/kg, PLASMA, 90 min, read-out: stability: percentage of material observed as intact prodrug, plasma): 98% | concentration at 2 h (mouse, plasma, 50 mg/kg, PLASMA, 120 min, read-out: concentration of prodrug in plasma): 0.3 µM | remaining at 2 h (mouse, plasma, 50 mg/kg, PLASMA, 120 min, read-out: stability: percentage of material observed as intact prodrug, plasma): 93% | concentration at 3 h (mouse, plasma, 50 mg/kg, PLASMA, 180 min, read-out: concentration of prodrug in plasma): 3.5 µM | remaining at 3 h (mouse, plasma, 50 mg/kg, PLASMA, 180 min, read-out: stability: percentage of material observed as intact prodrug, plasma): 97% | remaining at 0.5 h (mouse, small intestine, 50 mg/kg, SMALL INTESTINE, 30 min, read-out: stability: percentage of material observed as intact prodrug, small intestine): 91% | remaining at 2 h (mouse, small intestine, 50 mg/kg, SMALL INTESTINE, 120 min, read-out: stability: percentage of material observed as intact prodrug, small intestine): 47% | remaining at 0.5 h (mouse, tumor, 50 mg/kg, TUMOR, 30 min, read-out: stability: percentage of material observed as intact prodrug, tumor): 98%
SMILES: Cc1nc2ccc3ccc(CNc4ccc5c(c4)CN([C@@H](CCC(=O)O)C(=O)N[C@@H](Cc4ccccc4)C(=O)O)C5=O)cc3c2c(=O)[nH]1 [Prodrug 2, N-((S)-4-carboxy-2-(5-(((1,2-dihydro-3-methyl-1-oxoxbenzo(F)quinazolin-9-yl)methyl)amino)-1-oxo-2-isoindolinyl)butanoyl)-L-phenylalanine]
